Source: the NIST ThermoML archive (doi:10.1021/je034162x)
± gives the expanded uncertainty stated by the source.

Settings: 101.33 kPa, Liquid, Hot wire method

CC(C)=C(C)C [2,3-dimethyl-2-butene]
Settings	thermal conductivity [W/m/K]	thermal diffusivity [m2/s]
258.89 K	0.1356 ± 0.0011	–
259.17 K	0.1355 ± 0.0011	–
259.37 K	0.1354 ± 0.0011	–
260.14 K	–	9.38e-08 ± 1.8e-09
260.96 K	–	9.41e-08 ± 1.8e-09
261.54 K	–	9.41e-08 ± 1.8e-09
278.21 K	0.1285 ± 0.001	–
278.5 K	0.1283 ± 0.001	–
278.72 K	0.1283 ± 0.001	–
279.54 K	–	8.88e-08 ± 1.7e-09
280.38 K	–	8.85e-08 ± 1.7e-09
281 K	–	8.85e-08 ± 1.7e-09
294.09 K	0.1228 ± 0.00098	–
294.4 K	0.1226 ± 0.00098	–
294.63 K	0.1225 ± 0.00098	–
295.49 K	–	8.48e-08 ± 1.6e-09
296.37 K	–	8.44e-08 ± 1.6e-09
297.02 K	–	8.45e-08 ± 1.6e-09
312.76 K	0.1162 ± 0.00093	–
313.09 K	0.116 ± 0.00093	–
313.34 K	0.1159 ± 0.00093	–
314.2 K	–	7.96e-08 ± 1.5e-09
315.15 K	–	7.95e-08 ± 1.5e-09
315.82 K	–	7.94e-08 ± 1.5e-09
322.4 K	0.1128 ± 0.00091	–
322.74 K	0.1126 ± 0.00091	–
322.98 K	0.1125 ± 0.00091	–
323.81 K	–	7.58e-08 ± 1.5e-09
324.73 K	–	7.56e-08 ± 1.5e-09
325.39 K	–	7.54e-08 ± 1.4e-09
326.42 K	0.1116 ± 0.0009	–
326.77 K	0.1115 ± 0.0009	–
327.02 K	0.1114 ± 0.0009	–
327.89 K	–	7.6e-08 ± 1.5e-09
328.9 K	–	7.63e-08 ± 1.5e-09
329.57 K	–	7.59e-08 ± 1.5e-09

[2H]c1c([2H])c([2H])c([2H])c([2H])c1[2H] [benzene-d6]
Settings	thermal conductivity [W/m/K]	thermal diffusivity [m2/s]
280.76 K	0.1398 ± 0.00087	–
281.06 K	0.1397 ± 0.00087	–
281.26 K	0.1396 ± 0.00087	–
282.09 K	–	8.1e-08 ± 1.5e-09
282.98 K	–	8.15e-08 ± 1.5e-09
283.58 K	–	8.12e-08 ± 1.5e-09
291.53 K	0.1364 ± 0.00085	–
291.83 K	0.1363 ± 0.00085	–
292.04 K	0.1362 ± 0.00085	–
292.92 K	–	7.93e-08 ± 1.5e-09
293.83 K	–	7.96e-08 ± 1.5e-09
294.46 K	–	7.95e-08 ± 1.5e-09
304.05 K	0.1323 ± 0.00083	–
304.37 K	0.1322 ± 0.00083	–
304.59 K	0.1321 ± 0.00083	–
305.49 K	–	7.7e-08 ± 1.4e-09
306.42 K	–	7.69e-08 ± 1.4e-09
307.08 K	–	7.69e-08 ± 1.4e-09
316.34 K	0.1284 ± 0.00081	–
316.66 K	0.1283 ± 0.00081	–
316.89 K	0.1282 ± 0.00081	–
317.82 K	–	7.46e-08 ± 1.4e-09
318.77 K	–	7.45e-08 ± 1.4e-09
319.44 K	–	7.44e-08 ± 1.4e-09
326.75 K	0.1252 ± 0.00079	–
327.08 K	0.125 ± 0.00079	–
327.31 K	0.1249 ± 0.00079	–
328.26 K	–	7.25e-08 ± 1.4e-09
329.22 K	–	7.23e-08 ± 1.4e-09
329.88 K	–	7.2e-08 ± 1.3e-09

c1ccccc1 [benzene]
Settings	thermal conductivity [W/m/K]	thermal diffusivity [m2/s]
281.18 K	0.1464 ± 0.00097	–
281.49 K	0.1462 ± 0.00097	–
281.76 K	0.1461 ± 0.00097	–
282.86 K	–	9.74e-08 ± 1.8e-09
283.9 K	–	9.74e-08 ± 1.8e-09
284.75 K	–	9.72e-08 ± 1.8e-09
295.92 K	0.1416 ± 0.00094	–
296.25 K	0.1414 ± 0.00094	–
296.53 K	0.1413 ± 0.00094	–
297.67 K	–	9.4e-08 ± 1.8e-09
298.78 K	–	9.44e-08 ± 1.8e-09
299.68 K	–	9.44e-08 ± 1.8e-09
301.25 K	0.1399 ± 0.00093	–
301.59 K	0.1398 ± 0.00093	–
301.87 K	0.1396 ± 0.00093	–
303.02 K	–	9.29e-08 ± 1.7e-09
304.13 K	–	9.31e-08 ± 1.7e-09
305.05 K	–	9.29e-08 ± 1.7e-09
319.14 K	0.134 ± 0.00089	–
319.49 K	0.1338 ± 0.00089	–
319.79 K	0.1337 ± 0.00089	–
321.04 K	–	8.97e-08 ± 1.7e-09
322.15 K	–	8.92e-08 ± 1.7e-09
323.12 K	–	8.9e-08 ± 1.7e-09
